Assay results published in patent US9549932B2, “2-(morpholin-4-yl)-1,7-naphthyridines” (BAYER PHARMA AKTIENGESELLSCHAFT, priority 2014, dated 2017).

The compounds below were run against full-length human ATR protein (Homo sapiens (Human), UniProt Q13535) (assay: Binding assay ATR (TR-FRET tracer displacement)). Conditions: tracer A, TR-FRET; read-out: ATR binding (tracer A) IC50.
Excerpt: To determine of binding activity of the test compounds, full-length human ATR protein was expressed and purified together with ATRIP as described above. Furthermore, a fluorescently labelled compound (either tracer A or B as described above) was used as a tracer molecule. Detection of the binding event of the tracer was achieved by time-resolved fluorescence energy transfer (TR-FRET). We used an anti-GST-Terbium antibody (CisBio) that binds to the GST-tag at the N-terminus of ATR-kinase. […] Displacement of the fluorescent tracer by a test compound leads to a reduction of the TR-FRET-signal.
For the assay 50 nl of a 100-fold concentrated solution of the test compound in DMSO was pipetted into a black low volume 384well microtiter plate (MTP, Greiner Bio-One, Frickenhausen, Germany). […] The ATR-working solution was incubated for 30 min at 22° C. prior to dispensing to pre-form the complex of antiGST-Tb+GST-ATR+ATRIP. Then, 3 μl of the ATR-working solution were added to the test compound and the mixture was incubated for 10 min at 22° C. to allow pre-binding of the test compounds to ATR/ATRIP. Then, 2 μl of a 100 nM solution of either tracer A or B in assay buffer were added to the ATR-working solution. The resulting mixture was incubated for 30 min at 22° C. […] The dilution series were prepared separately before the assay on the level of the 100 fold concentrated solutions in DMSO by serial 1:3.4 dilutions in duplicate values for each concentration. IC50 values were calculated by a 4 parameter fit using standard software (GraphPad prism or equivalent).

Chain of full-length human ATR protein (Q13535 other isoform, or with tags, fused parts or gaps): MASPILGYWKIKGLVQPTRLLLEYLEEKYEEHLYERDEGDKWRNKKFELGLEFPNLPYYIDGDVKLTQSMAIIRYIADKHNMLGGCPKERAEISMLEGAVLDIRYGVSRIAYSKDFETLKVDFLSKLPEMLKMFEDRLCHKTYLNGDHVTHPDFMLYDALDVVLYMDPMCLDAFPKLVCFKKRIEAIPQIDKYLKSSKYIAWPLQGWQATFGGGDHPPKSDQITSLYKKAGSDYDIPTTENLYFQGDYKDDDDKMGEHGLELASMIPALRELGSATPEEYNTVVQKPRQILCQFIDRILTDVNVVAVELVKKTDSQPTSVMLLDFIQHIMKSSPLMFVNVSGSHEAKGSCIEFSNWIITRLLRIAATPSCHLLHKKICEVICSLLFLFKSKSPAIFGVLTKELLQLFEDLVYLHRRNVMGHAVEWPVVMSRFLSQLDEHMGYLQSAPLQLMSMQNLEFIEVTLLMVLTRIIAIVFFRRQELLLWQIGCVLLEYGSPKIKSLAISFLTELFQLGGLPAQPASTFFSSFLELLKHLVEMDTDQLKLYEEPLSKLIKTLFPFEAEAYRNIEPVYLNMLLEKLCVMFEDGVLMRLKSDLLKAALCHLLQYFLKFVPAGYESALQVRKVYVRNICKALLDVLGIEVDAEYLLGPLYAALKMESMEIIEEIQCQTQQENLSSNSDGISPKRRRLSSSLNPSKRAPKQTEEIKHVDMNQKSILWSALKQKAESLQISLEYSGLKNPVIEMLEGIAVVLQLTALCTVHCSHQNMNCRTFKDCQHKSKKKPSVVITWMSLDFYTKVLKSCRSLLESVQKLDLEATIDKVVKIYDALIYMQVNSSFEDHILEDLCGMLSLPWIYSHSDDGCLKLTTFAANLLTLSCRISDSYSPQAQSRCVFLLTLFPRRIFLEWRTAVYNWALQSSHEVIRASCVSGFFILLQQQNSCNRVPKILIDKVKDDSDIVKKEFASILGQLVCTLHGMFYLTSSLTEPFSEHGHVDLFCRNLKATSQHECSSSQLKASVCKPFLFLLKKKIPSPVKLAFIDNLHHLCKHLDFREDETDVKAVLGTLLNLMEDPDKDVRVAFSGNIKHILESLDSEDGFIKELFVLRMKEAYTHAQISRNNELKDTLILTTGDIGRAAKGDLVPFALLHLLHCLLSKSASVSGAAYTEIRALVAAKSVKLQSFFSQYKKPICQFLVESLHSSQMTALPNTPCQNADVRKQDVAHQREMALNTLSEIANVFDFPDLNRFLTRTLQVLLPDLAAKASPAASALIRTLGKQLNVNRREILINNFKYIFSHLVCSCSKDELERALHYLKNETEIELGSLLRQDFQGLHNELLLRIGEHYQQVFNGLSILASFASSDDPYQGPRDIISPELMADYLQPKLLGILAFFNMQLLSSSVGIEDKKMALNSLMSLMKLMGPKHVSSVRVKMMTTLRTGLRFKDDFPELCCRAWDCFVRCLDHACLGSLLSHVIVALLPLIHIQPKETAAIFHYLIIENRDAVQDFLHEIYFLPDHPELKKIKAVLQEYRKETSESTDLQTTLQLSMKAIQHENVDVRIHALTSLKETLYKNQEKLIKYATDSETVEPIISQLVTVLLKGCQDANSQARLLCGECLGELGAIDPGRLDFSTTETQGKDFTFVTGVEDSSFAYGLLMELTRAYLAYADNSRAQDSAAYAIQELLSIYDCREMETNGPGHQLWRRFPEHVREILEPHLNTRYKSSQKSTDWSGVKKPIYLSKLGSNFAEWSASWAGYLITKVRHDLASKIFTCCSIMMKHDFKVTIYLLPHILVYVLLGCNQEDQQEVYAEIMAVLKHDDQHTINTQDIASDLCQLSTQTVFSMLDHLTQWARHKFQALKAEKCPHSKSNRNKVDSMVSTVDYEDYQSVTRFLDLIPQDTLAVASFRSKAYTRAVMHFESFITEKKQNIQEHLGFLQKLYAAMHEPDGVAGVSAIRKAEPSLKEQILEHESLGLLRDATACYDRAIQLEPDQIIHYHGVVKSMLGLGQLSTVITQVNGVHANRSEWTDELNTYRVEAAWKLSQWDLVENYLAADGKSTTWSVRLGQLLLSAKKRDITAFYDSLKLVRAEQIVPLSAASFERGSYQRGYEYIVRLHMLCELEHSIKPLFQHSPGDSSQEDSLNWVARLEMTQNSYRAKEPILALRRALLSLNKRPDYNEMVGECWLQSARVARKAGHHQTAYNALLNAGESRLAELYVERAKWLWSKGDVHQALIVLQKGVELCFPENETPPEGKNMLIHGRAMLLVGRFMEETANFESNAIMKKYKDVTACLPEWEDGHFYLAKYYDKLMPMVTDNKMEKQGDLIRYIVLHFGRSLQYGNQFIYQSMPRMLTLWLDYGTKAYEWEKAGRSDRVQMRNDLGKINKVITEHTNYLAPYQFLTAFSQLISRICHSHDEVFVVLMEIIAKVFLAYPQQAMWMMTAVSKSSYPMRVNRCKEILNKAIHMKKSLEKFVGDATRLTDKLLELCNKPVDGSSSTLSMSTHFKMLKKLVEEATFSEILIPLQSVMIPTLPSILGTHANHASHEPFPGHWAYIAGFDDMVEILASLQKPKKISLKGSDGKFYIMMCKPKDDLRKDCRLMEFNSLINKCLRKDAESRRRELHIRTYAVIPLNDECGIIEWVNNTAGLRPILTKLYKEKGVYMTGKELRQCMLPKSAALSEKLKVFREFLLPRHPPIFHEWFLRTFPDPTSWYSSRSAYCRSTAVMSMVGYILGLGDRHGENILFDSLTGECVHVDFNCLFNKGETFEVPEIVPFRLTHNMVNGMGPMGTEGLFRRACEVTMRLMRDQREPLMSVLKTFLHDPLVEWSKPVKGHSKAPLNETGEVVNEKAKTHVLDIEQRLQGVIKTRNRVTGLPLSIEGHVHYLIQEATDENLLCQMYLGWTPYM
Chain of full-length human ATR protein (Q8WXE1 other isoform, or with tags, fused parts or gaps partner): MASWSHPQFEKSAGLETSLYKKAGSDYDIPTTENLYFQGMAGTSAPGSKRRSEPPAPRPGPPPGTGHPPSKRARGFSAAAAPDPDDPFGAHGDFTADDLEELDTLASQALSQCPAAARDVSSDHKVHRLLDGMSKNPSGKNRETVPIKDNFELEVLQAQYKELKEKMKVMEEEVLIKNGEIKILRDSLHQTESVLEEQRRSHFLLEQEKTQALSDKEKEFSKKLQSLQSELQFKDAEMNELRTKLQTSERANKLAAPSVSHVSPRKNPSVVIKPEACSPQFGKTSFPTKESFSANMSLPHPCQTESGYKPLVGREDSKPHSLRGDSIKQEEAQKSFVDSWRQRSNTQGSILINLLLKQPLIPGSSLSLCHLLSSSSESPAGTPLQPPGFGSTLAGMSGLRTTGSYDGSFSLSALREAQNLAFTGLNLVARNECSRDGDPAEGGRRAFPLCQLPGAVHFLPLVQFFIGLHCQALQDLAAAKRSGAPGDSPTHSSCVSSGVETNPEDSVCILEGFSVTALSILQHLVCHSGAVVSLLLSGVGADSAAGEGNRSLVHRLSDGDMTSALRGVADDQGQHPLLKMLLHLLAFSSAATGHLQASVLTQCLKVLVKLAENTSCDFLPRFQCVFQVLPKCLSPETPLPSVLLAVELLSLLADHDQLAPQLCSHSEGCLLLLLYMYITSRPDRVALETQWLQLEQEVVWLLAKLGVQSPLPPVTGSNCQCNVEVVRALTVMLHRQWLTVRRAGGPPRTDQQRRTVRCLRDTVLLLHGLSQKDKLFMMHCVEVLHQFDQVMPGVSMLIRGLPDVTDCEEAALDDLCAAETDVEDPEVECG

Row | Structure (SMILES) | IC50 [µM]
1 | c1ccc2c(c1)CCN(c1cc(N3CCOCC3)nc3c(-c4ccn[nH]4)nccc13)C2 [Example 419, 4-(3,4-dihydroisoquinolin-2(1H)-yl)-2-(morpholin-4-yl)-8-(1H-pyrazol-5-yl)-1,7-naphthyridine] | 0.118
2 | CC(C)(C)OC(=O)[C@@H]1CCCN1c1cc(N2CCOCC2)nc2c(-c3ccn[nH]3)nccc12 [Example 422, tert-butyl 1-[2-(morpholin-4-yl)-8-(1H-pyrazol-5-yl)-1,7-naphthyridin-4-yl]-prolinate] | 2.24
3 | CC(C)Oc1ncccc1-c1cc(N2CCOC[C@H]2C)nc2c(-c3ccn[nH]3)nccc12 [Example 219, 2-[(3R)-3-methylmorpholin-4-yl]-4-[2-(propan-2-yloxy)pyridin-3-yl]-8-(1H-pyrazol-5-yl)-1,7-naphthyridine] | 0.132
4 | COc1cccc(-c2cc(N3CCOCC3)nc3c(-c4ccn[nH]4)nccc23)c1 [Example 306, 4-(3-methoxyphenyl)-2-(morpholin-4-yl)-8-(1H-pyrazol-5-yl)-1,7-naphthyridine] | 0.0823
5 | CS(=O)(=O)c1nc(-c2cc(N3CCOCC3)nc3c(-c4ccn[nH]4)nccc23)cs1 [Example 21, 4-[2-(methylsulfonyl)-1,3-thiazol-4-yl]-2-(morpholin-4-yl)-8-(1H-pyrazol-5-yl)-1,7-naphthyridine] | 0.19
6 | C[C@@H]1COCCN1c1cc(-c2ccc(N3CCCC3)cc2F)c2ccnc(-c3ccn[nH]3)c2n1 [Example 134, 4-[2-fluoro-4-(pyrrolidin-1-yl)phenyl]-2-[(3R)-3-methylmorpholin-4-yl]-8-(1H-pyrazol-5-yl)-1,7-naphthyridine] | 0.0343
7 | CCS(=O)(=O)c1cc(N2CCOCC2)nc2c(-c3ccn[nH]3)nccc12 [Example 200, 4-(ethylsulfonyl)-2-(morpholin-4-yl)-8-(1H-pyrazol-5-yl)-1,7-naphthyridine] | 0.0869
8 | Cc1nn(C)c(C)c1-c1cc(N2CCOCC2)nc2c(-c3ccn[nH]3)nccc12 [Example 273, 2-(morpholin-4-yl)-8-(1H-pyrazol-5-yl)-4-(1,3,5-trimethyl-1H-pyrazol-4-yl)-1,7-naphthyridine] | 0.014
9 | CC(C)C(C)(O)c1cc(N2CCOC[C@H]2C)nc2c(-c3ccn[nH]3)nccc12 (stereo partly drawn) [Example 281, 3-methyl-2-{2-[(3R)-3-methylmorpholin-4-yl]-8-(1H-pyrazol-5-yl)-1,7-naphthyridin-4-yl}butan-2-ol] | 0.0136
10 | Cc1ccc(-c2cc(N3CCOC[C@H]3C)nc3c(-c4ccn[nH]4)nccc23)s1 [Example 100, 2-[(3R)-3-methylmorpholin-4-yl]-4-(5-methyl-2-thienyl)-8-(1H-pyrazol-5-yl)-1,7-naphthyridine] | 0.0165
11 | CCn1cc(-c2cc(N3CCOC[C@H]3C)nc3c(-c4ccn[nH]4)nccc23)cn1 [Example 261, 4-(1-ethyl-1H-pyrazol-4-yl)-2-[(3R)-3-methylmorpholin-4-yl]-8-(1H-pyrazol-5-yl)-1,7-naphthyridine] | 0.0292
12 | C[C@@H]1COCCN1c1cc(C2CCNCC2)c2ccnc(-c3ccn[nH]3)c2n1 [Example 251, 2-[(3R)-3-methylmorpholin-4-yl]-4-(piperidin-4-yl)-8-(1H-pyrazol-5-yl)-1,7-naphthyridine] | 0.0275
13 | Clc1cc(Cl)cc(-c2cc(N3CCOCC3)nc3c(-c4ccn[nH]4)nccc23)c1 [Example 344, 4-(3,5-dichlorophenyl)-2-(morpholin-4-yl)-8-(1H-pyrazol-5-yl)-1,7-naphthyridine] | 0.174
14 | Fc1ccc(-c2cc(N3CCOCC3)nc3c(-c4ccn[nH]4)nccc23)cn1 [Example 360, 4-(6-fluoropyridin-3-yl)-2-(morpholin-4-yl)-8-(1H-pyrazol-5-yl)-1,7-naphthyridine] | 0.0938
15 | Fc1ccccc1-c1cc(N2CCOCC2)nc2c(-c3ccn[nH]3)nccc12 [Example 327, 4-(2-fluorophenyl)-2-(morpholin-4-yl)-8-(1H-pyrazol-5-yl)-1,7-naphthyridine] | 0.0177
16 | c1ccc(COc2cc(N3CCOCC3)nc3c(-c4cc[nH]n4)nccc23)cc1 [Example 50, 4-benzyloxy-2-(morpholin-4-yl)-8-(1H-pyrazol-3-yl)-[1,7]naphthyridine] | 0.41
17 | c1cc(-c2nccc3c(N4CCn5ccnc5C4)cc(N4CCOCC4)nc23)[nH]n1 [Example 169, 4-(5,6-dihydroimidazo[1,2-a]pyrazin-7(8H)-yl)-2-(morpholin-4-yl)-8-(1H-pyrazol-5-yl)-1,7-naphthyridine] | 0.115
18 | Cc1ccc(-c2cc(N3CCOCC3)nc3c(-c4ccn[nH]4)nccc23)s1 [Example 381, 4-(5-methylthiophen-2-yl)-2-(morpholin-4-yl)-8-(1H-pyrazol-5-yl)-1,7-naphthyridine] | 0.121

Row | Structure (SMILES) | IC50 [µM]
19 | NC(=O)[C@H]1CCCN1c1cc(N2CCOCC2)nc2c(-c3ccn[nH]3)nccc12 (stereo in doubt) [Example 428, 1-[2-(morpholin-4-yl)-8-(1H-pyrazol-5-yl)-1,7-naphthyridin-4-yl]-prolinamide] | 0.0698
20 | C[C@@H]1COCCN1c1cc(N(C)C2CC2)c2ccnc(-c3ccn[nH]3)c2n1 [Example 85, N-cyclopropyl-N-methyl-2-[(3R)-3-methylmorpholin-4-yl]-8-(1H-pyrazol-5-yl)-1,7-naphthyridin-4-amine] | 0.0119
21 | C[C@@H]1COCCN1c1cc(-c2ccnc3[nH]ccc23)c2ccnc(-c3ccn[nH]3)c2n1 [Example 104, 2-[(3R)-3-methylmorpholin-4-yl]-8-(1H-pyrazol-5-yl)-4-(1H-pyrrolo[2,3-b]pyridin-4-yl)-1,7-naphthyridine] | 0.0141
22 | CC(C)Oc1cc(N2CCOCC2)nc2c(-c3cc[nH]c3)nccc12 [Example 68, 2-(morpholin-4-yl)-4-(propan-2-yloxy)-8-(1H-pyrrol-3-yl)-1,7-naphthyridine] | 0.589
23 | OCc1cccc(-c2cc(N3CCOCC3)nc3c(-c4ccn[nH]4)nccc23)c1 [Example 313, {3-[2-(morpholin-4-yl)-8-(1H-pyrazol-5-yl)-1,7-naphthyridin-4-yl]phenyl}methanol] | 0.029
24 | COc1ccc(Sc2cc(N3CCOCC3)nc3c(-c4ccn[nH]4)nccc23)cc1 [Example 213] | 0.0535
25 | C[C@@H]1COCCN1c1cc(OCCCCN)c2ccnc(-c3ccn[nH]3)c2n1 [Example 57, 4-({2-[(3R)-3-methylmorpholin-4-yl]-8-(1H-pyrazol-5-yl)-1,7-naphthyridin-4-yl}oxy)butan-1-amine] | 0.23
26 | CC(C)CN(C)c1cc(N2CCOCC2)nc2c(-c3ccn[nH]3)nccc12 [Example 423, N-methyl-N-(2-methylpropyl)-2-(morpholin-4-yl)-8-(1H-pyrazol-5-yl)-1,7-naphthyridin-4-amine] | 0.0839
27 | C[C@@H]1COCCN1c1cc(N)c2ccnc(-c3ccn[nH]3)c2n1 [Example 267, 2-[(3R)-3-methylmorpholin-4-yl]-8-(1H-pyrazol-5-yl)-1,7-naphthyridin-4-amine] | 1.01
28 | c1cnc2ccc(-c3cc(N4CCOCC4)nc4c(-c5ccn[nH]5)nccc34)cc2c1 [Example 384, 2-(morpholin-4-yl)-8-(1H-pyrazol-5-yl)-4-(quinolin-6-yl)-1,7-naphthyridine] | 0.0892
29 | Cc1cc(-c2cc(N3CCOCC3)nc3c(-c4ccn[nH]4)nccc23)cnc1S(C)(=O)=O [Example 16, 4-[5-methyl-6-(methylsulfonyl)pyridin-3-yl]-2-(morpholin-4-yl)-8-(1H-pyrazol-5-yl)-1,7-naphthyridine] | 0.173
30 | C[C@@H]1COCCN1c1cc(-c2ccn(CCO)n2)c2ccnc(-c3ccn[nH]3)c2n1 [Example 160, 2-(3-{2-[(3R)-3-methylmorpholin-4-yl]-8-(1H-pyrazol-5-yl)-1,7-naphthyridin-4-yl}-1H-pyrazol-1-yl)ethanol] | 0.0372
31 | NC(=O)c1cc(N2CCOCC2)nc2c(-c3cc[nH]n3)nccc12 [Example 36, 2-morpholin-4-yl-8-(1H-pyrazol-3-yl)-[1,7]naphthyridine-4-carboxamide] | 1.5
32 | Cc1cc(-c2cc(N3CCOCC3)nc3c(-c4ccn[nH]4)nccc23)n[nH]1 [Example 214, 4-(5-methyl-1H-pyrazol-3-yl)-2-(morpholin-4-yl)-8-(1H-pyrazol-5-yl)-1,7-naphthyridine] | 0.176
33 | C[C@@H]1COCCN1c1cc([C@H]2C[C@@H]2C)c2ccnc(-c3ccn[nH]3)c2n1 (stereo in doubt) [Example 171, 4-[(trans)-2-methylcyclopropyl]-2-[(3R)-3-methylmorpholin-4-yl]-8-(1H-pyrazol-5-yl)-1,7-naphthyridine] | 0.0947
34 | C[S+]([O-])c1cc(N2CCOCC2)nc2c(-c3ccn[nH]3)nccc12 (stereo not shown) [Example 202, 4-(methylsulfinyl)-2-(morpholin-4-yl)-8-(1H-pyrazol-5-yl)-1,7-naphthyridine] | 0.0783
35 | Clc1ccc(-c2cc(N3CCOCC3)nc3c(-c4ccn[nH]4)nccc23)s1 [Example 299, 4-(5-chlorothiophen-2-yl)-2-(morpholin-4-yl)-8-(1H-pyrazol-5-yl)-1,7-naphthyridine] | 0.0552

Same assay, conditions: tracer B, TR-FRET; read-out: ATR binding (tracer B) IC50

Row | Structure (SMILES) | IC50 [µM]
36 | c1ccc(COc2cc(N3CCOCC3)nc3c(-c4cc[nH]n4)nccc23)cc1 [Example 50, 4-benzyloxy-2-(morpholin-4-yl)-8-(1H-pyrazol-3-yl)-[1,7]naphthyridine] | 0.514
37 | CC(C)Oc1cc(N2CCOCC2)nc2c(-c3cc[nH]c3)nccc12 [Example 68, 2-(morpholin-4-yl)-4-(propan-2-yloxy)-8-(1H-pyrrol-3-yl)-1,7-naphthyridine] | 0.472
